Experimental data reported in PMC10275983 (Nature Communications, 2023).

Columns and labels:
SARS-CoV-2 = settings: combined with ritonavir; initiated within three days of symptom onset; interim results of Phase II-III studies; cited from earlier work
From the text: Small molecule antivirals offer potential advantages over antibody therapeutics. […] During the early months of the pandemic, huge multinational effort was initiated to repurpose already approved antiviral or immunosuppressive drugs. One such drug was remdesivir, a nucleoside analog chain terminator that blocks replication of viral RNA[17].

[1] = tested on: SARS-CoV-2/human/Liverpool/REMRQ0001/2020; type: in vivo

| SMILES | reduced hospitalization risk (SARS-CoV-2) [%] | inflammatory markers (cytokine and chemokine transcripts) in lung and nasal turbinate ([1]; K18 hACE2 mice N=4, day 4 post-infection, same dosing, qPCR) | infectious virus in the lungs (plaque assay on lung homogenate) ([1]; mouse, in vivo) | viral RNA levels in nasal turbinates (qPCR, sub-genomic E gene) ([1]; mouse, in vivo) |
| --- | --- | --- | --- | --- |
| CC(C)(C)[C@H](NC(=O)C(F)(F)F)C(=O)N1C[C@H]2[C@@H]([C@H]1C(=O)N[C@H](C#N)C[C@@H]1CCNC1=O)C2(C)C [nirmatrelvir] | 89 |  |  |  |
| CCC(CC)COC(=O)[C@H](C)N[P@](=O)(OC[C@H]1O[C@@](C#N)(c2ccc3c(N)ncnn23)[C@H](O)[C@@H]1O)Oc1ccccc1 [remdesivir] |  | remained substantially elevated | only partially decreased viraemia | no significant impact |
